# According to patent US20250387381A1, “COMPOSITIONS AND METHODS FOR ENHANCED DRUG LOADING OF LONG-ACTING IN SITU FORMING IMPLANTS AND USES THEREOF” (The University of North Carolina at Chapel Hill, priority 2022, published 2025):
# Legend:
# [1] = human, in vivo, po, 150 mg; cited from earlier work
# [2] = Stability of LA-RFB formulations stored at room temperature in the dark; type: physicochemical; conditions: solution of RFB in DMSO without polymer, same storage
# Procedure: At predetermined time points (3, 4, 6, 9, 12, 15 months of incubation) 10 μL of formulation was diluted in 1 mL of DMSO, then further diluted at 1:1000 in DMSO for analysis by UV-vis absorbance spectrometer and HPLC to measure the drug concentration and drug degradation. As a control, RFB dissolved in DMSO (20 μg mL^−1 RFB solution) was incubated in the dark at RT.
# [3] = RFB saturated solubility in DMSO and NMP with or without amphiphilic additives; conditions: for solubility at 1 day: organic solvent or mixture, thermodynamic from solid
# Mtb = conditions: cited from earlier work
smiles,measurement,setting,value
"CO[C@H]1/C=C/O[C@@]2(C)Oc3c(C)c(O)c4c(c3C2=O)C2=NC3(CCN(CC(C)C)CC3)NC2=C(NC(=O)/C(C)=C\C=C\[C@H](C)[C@H](O)[C@@H](C)[C@@H](O)[C@@H](C)[C@H](OC(C)=O)[C@@H]1C)C4=O [RFB, Rifabutin]",Cmax,[1],0.46 µg/mL
same,Residual RFB after 3 months,[2],67%
same,Residual RFB after 4 months,[2],53%
same,Residual RFB after 6 months,[2],25%
same,Highest RFB solubility in DMSO with Kolliphor HS 15,[3]; 0.45% Kolliphor HS 15,564±7 mg RFB per mL of DMSO
same,solubility at 1 day,"[3]; Highest RFB solubility in NMP with Kolliphor HS 15, 8.8% Kolliphor HS 15",702 ± 10 mg/mL
same,solubility at 1 day,"[3]; RFB maximum solubility in DMSO, DMSO alone, room temperature, mean±SD",202 ± 22 mg/mL
same,solubility at 1 day,"[3]; RFB maximum solubility in NMP, NMP without additive, room temperature, mean±SD",148 ± 34 mg/mL
same,RFB MIC,Mtb,0.064 mg/L
